For 67 molecules, EC50 results are on record in BindingDB's records for doi:10.7270/Q2BR8QM3 (Nmmlsc, 2008).

Structures can show the parent of a compound that is named as a salt.

For the first assay, the target named is T1, Bcl-2-like protein 2 (Homo sapiens, UniProt Q92843).
T1 sequence (Q92843 whole entry): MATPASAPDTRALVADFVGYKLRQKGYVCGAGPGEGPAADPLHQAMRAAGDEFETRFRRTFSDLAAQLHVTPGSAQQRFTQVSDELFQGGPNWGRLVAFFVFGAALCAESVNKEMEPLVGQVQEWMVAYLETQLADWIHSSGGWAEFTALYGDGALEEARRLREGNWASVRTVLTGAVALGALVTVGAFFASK
The assay is described as follows: modulators of Bim-Bcl-W protein interaction, dose response, biochemical, multiplexed, bead-based flow cytometry, fluorescence (AID 1330).
Conditions: not given
On to `COc1ccc2c3c(cccc13)N(C)N=C2C` [MLS000554700], for which the midpoint of the response, the EC50, lay at 1.56 µM. The molecule `C#CCn1cc(C=C2C(=O)c3ccccc3C2=O)c2ccccc21` [SMR000196125] had an EC50 of 9.02 µM. This EC50 lies about 5.8-fold higher than the previous one.

In the case of `CCC(=O)N(CC)C1C(=O)C(=O)c2ccccc2C1=O` (configuration not stated) [N-ethyl-N-(1-hydroxy-3,4-dioxo-2-naphthalenyl)propanamide], the EC50 was found to be 0.92 µM.

With `OCCN1CCN(CCCc2c3c(cc4c2CCC4)CCC3)CC1` [MLS000698424], the midpoint of the response, the EC50, lay at 16.6 µM. Compared with the last molecule, the EC50 is about 18-fold higher. Still for that read-out and setting: for `COc1cccc(CN=Nc2nn3cnnc3c3ccccc23)c1O` the value was 0.49 µM; for `Nc1c(C(=O)NCC2CCCO2)sc2nc3c(c(-c4ccco4)c12)CC/C3=C\c1ccco1` (configuration not stated) [SMR000259502], 2.36 µM. Molecule `O=C(NCc1ccccn1)c1ccc2nc(-c3ccco3)c(-c3ccco3)nc2c1` [2,3-di-2-furyl-N-(pyridin-2-ylmethyl)quinoxaline-6-carboxamide] registered a 50% effective concentration (EC50) of 7.22 µM. Against the preceding molecule, the EC50 is about 3.1-fold higher.

For the molecule `O=C1c2ccccc2-c2onc3ccc(NCCCn4ccnc4)c1c23` [SMR000044769], it took 1.11 µM to reach a half-maximal effect (EC50). For the molecule `CCC(/C=C1\Sc2ccc(OC)cc2N1CCO)=C\c1sc2ccc(OC)cc2[n+]1CCO`, the response was half-maximal at 22.1 µM (EC50). On the same count and under the same terms, in the case of `COc1cccc2c(SCC(=O)NN=Cc3ccc(O)cc3O)cc(C)nc12` [N'-[(E)-(2-hydroxy-4-oxo-1-cyclohexa-2,5-dienylidene)methyl]-2-[(8-methoxy-2-methyl-4-quinolinyl)thio]acetohydrazide] it was 55.2 µM.

In turn, `CCN(CC)S(=O)(=O)c1cccc(C(=O)NN=Cc2ccc(O)c(O)c2O)c1` had an EC50 of 5.13 µM. `Cc1nnc2ccc(-c3cccc(NC(=O)c4ccco4)c3)nn12` [SMR000324305] gave an EC50 of 7.89 µM.

For `O=c1[nH]c2ccc(N=Cc3c(O)ccc4cc(Br)ccc34)cc2[nH]1` [SMR000171789], it took 4.15 µM to reach a half-maximal effect (EC50). `Nc1c(C(=O)NC2CC2)sc2nc3c(c(-c4ccco4)c12)CC/C3=C/c1ccco1` [SMR000259554] had an EC50 of 2.6 µM.

Consider `CC(=NNC(=O)c1cc(O)c(O)c(O)c1)c1ccc([N+](=O)[O-])cc1` [SMR000312589], for which the response was half-maximal at 4.03 µM (EC50). The molecule `CCN1/C(=C/C(C)=C/c2sc3ccccc3[n+]2CC)Sc2ccccc21` [SMR000354813] showed an EC50 of 37.5 µM.

`CN=c1scc(-c2cccs2)n1N=Cc1ccc(O)c(O)c1O` [SMR000242177] gave an EC50 of 5.05 µM.

The molecule `COc1cc(/C=C2\CC/C(=C\c3cc(OC)c(O)c(OC)c3)C2=O)cc(OC)c1O` [(2E,5E)-2,5-bis[(4-hydroxy-3,5-dimethoxyphenyl)methylidene]cyclopentan-1-one] showed an EC50 of 3.31 µM. As for `CN1CCc2cccc3c2[C@H]1Cc1ccc(O)c(O)c1-3` [APOMORPHINE HYDROCHLORIDE], the half-maximal effective concentration (EC50) is 19 µM. As to `Cc1nc2ncccn2c1-c1csc(Nc2ccc(O)cc2)n1`, the midpoint of the response, the EC50, lay at 0.33 µM. Same read-out and setting: for `O=C1c2ccccc2-c2onc3ccc(NCc4ccco4)c1c23` [MLS000080234] the value was 8.37 µM.

The same assay, now with this note: inactive by the depositor's call.
For the molecule `Cc1cc(OCc2cn3cccnc3n2)ccc1Cl` [2-[(4-chloranyl-3-methyl-phenoxy)methyl]imidazo[1,2-a]pyrimidine], the EC50 is 19.8 µM.

As to `O=C(/C=C/c1ccc(-c2ccccc2)o1)c1ccccc1` [(E)-1-phenyl-3-(5-phenyl-2-furanyl)-2-propen-1-one], a half-maximal effect (EC50) was put at 13.9 µM. Turning to `CCOc1ccccc1CNc1ccc(O)cc1`, the midpoint of the response, the EC50, lay at 2.31 µM.

For `CCN(CC)c1ccc(NC2=C(Cl)C(=O)c3ccccc3C2=O)cc1` [2-chloro-3-{[4-(diethylamino)phenyl]amino}naphthoquinone], the EC50 is 0.17 µM.

On to `COC(=O)CSc1ncnc2c1sc1nc(-c3ccco3)c3c(c12)CC(C)(C)OC3` [MLS000039339], for which the response was half-maximal at 34 µM (EC50). The same measure, in the same setting: for `Cc1ccc(/C=C/C(=O)c2ccccc(=O)c2O)cc1C` [MLS000756172] the value was 27.9 µM. The molecule `O=C(CSc1ccc2nnc(-c3ccncc3)n2n1)Nc1nccs1` [SMR000320332] had an EC50 of 11.1 µM.

In turn, `Cc1ccc(C)c(/C=C/C(=O)c2ccccc(=O)c2O)c1` returned an EC50 of 8.51 µM. The molecule `CCOCCCn1c(N)c(C(=O)Nc2sc3c(c2C(=O)OC)CCCC3)c2nc3ccccc3nc21` had an EC50 of 1.8 µM. Molecule `COc1ccc(OC)c(-n2c(=O)c3ccccc3c3ccccc3c2=O)c1` [SMR000236434] had an EC50 of 18 µM.

Molecule `Cc1ccnc(Nc2nc(-c3c(C)nc4sccn34)cs2)c1` [[4-(6-Methyl-imidazo[2,1-b]thiazol-5-yl)-thiazol-2-yl]-(4-methyl-pyridin-2-yl)-amine] registered an EC50 of 15.7 µM. The molecule `O=C(NCCO)c1ccc2nc(-c3ccco3)c(-c3ccco3)nc2c1` [SMR000121771] displayed an EC50 of 11.2 µM.

For `Cc1ccc(NC2=C(NC(=O)c3ccccc3)C(=O)c3ccccc3C2=O)cc1Cl` [MLS000392290], the EC50 was 4.34 µM. In the case of `COc1ccc2nc(-c3ccco3)c(-c3ccco3)nc2c1` [2,3-di-2-furyl-6-methoxyquinoxaline], the EC50 stood at 28.3 µM.

The molecule `Cc1ccc(/C=C/C2=Cc3c(sc(NC(=O)CSc4nnc(N)[nH]4)c3C#N)C(C)(C)C2)o1` [2-[(5-azanyl-1H-1,2,4-triazol-3-yl)sulfanyl]-N-[3-cyano-7,7-dimethyl-5-[(E)-2-(5-methylfuran-2-yl)ethenyl]-6H-1-benzothiophen-2-yl]ethanamide] yielded an EC50 of 6.38 µM. Regarding `CC(=O)NC1=C(NC2CCS(=O)(=O)C2)C(=O)c2ccccc2C1=O` (configuration not stated) [N-[3-[(1,1-dioxothiolan-3-yl)amino]-1,4-dioxonaphthalen-2-yl]acetamide], the EC50 turned out to be 3.49 µM.

In turn, `CCOCCCNc1nc(S)nc2cc(OC)c(OC)cc12` registered a half-maximal effective concentration (EC50) of 2.2 µM. Still for that read-out and setting: for `CCc1ccc(/C=C/C(=O)c2cc(Br)ccc(=O)c2O)cc1` [5-bromo-3-[(E)-3-(4-ethylphenyl)-1-oxoprop-2-enyl]-2-hydroxy-1-cyclohepta-2,4,6-trienone] the value was 52.1 µM.

In the case of `COCCCn1c(N)c(C(=O)Nc2sc3c(c2C(=O)OC)CCCC3)c2nc3ccccc3nc21` [MLS000595323], the midpoint of the response, the EC50, lay at 2.34 µM. `COc1cc(CNc2ccc3[nH]c(=O)[nH]c3c2)cc(Br)c1OCC(=O)NC(C)(C)C` [2-[2-bromo-6-methoxy-4-[[(2-oxo-1,3-dihydrobenzimidazol-5-yl)amino]methyl]phenoxy]-N-tert-butylacetamide] displayed an EC50 of 1.47 µM. Regarding `CCOc1cc(C2Nc3cccc4cccc(c34)N2)ccc1O` [MLS000068595], the EC50 amounted to 31.7 µM. Same read-out and setting: in the case of `CCOC(=O)c1c(O)nc2ccc(Cl)c3c2c1-c1ccccc1C3=O` [MLS000704595] it was 6.14 µM. `CN(C)c1ncc(C2=C(Cl)C(=O)C(N3CCCC3)=C(Cl)C2=O)s1` gave an EC50 of 0.05 µM. The molecule `Clc1nc(NCc2cccnc2)nc(N2CCOCC2)n1` [MLS000121154] came in with an EC50 of 18.5 µM.

Turning to `Cc1ccc(-c2ccc(/C=C/C(=O)c3ccccc3)o2)cc1`, the 50% effective concentration (EC50) was 3.56 µM. On to `Cc1ccc(C(=O)/C=C/c2ccc(-c3ccc(C)cc3)o2)cc1` [1-p-Tolyl-3-(5-p-tolyl-furan-2-yl)-propenone], for which a half-maximal response (EC50) required 1.02 µM.

`O=C(c1ccccc1)c1ccc2nc(-c3ccco3)c(-c3ccco3)nc2c1` yielded an EC50 of 14.8 µM. Consider `COc1cc2nc(=S)[nH]c(NCCc3ccc(S(N)(=O)=O)cc3)c2cc1OC` [MLS000674601], for which the response was half-maximal at 0.67 µM (EC50). On to `O=C(/C=C/c1ccccc1Cl)c1ccccc(=O)c1O` [3-[(E)-3-(2-chlorophenyl)prop-2-enoyl]-2-oxidanyl-cyclohepta-2,4,6-trien-1-one], for which the EC50 was found to be 11.8 µM. Molecule `CSc1nnc2c3cc(C)ccc3n(Cc3ccccc3)c2n1` [SMR000046397] gave an EC50 of 29.6 µM.

Take `c1coc(C2=Nc3cccc4cccc(c34)N2)c1` [2-(2-furanyl)-1H-perimidine]: it took 6.62 µM to reach a half-maximal effect (EC50). The same measure, in the same setting: in the case of `COCCNc1[nH]c(=S)nc2cc(OC)c(OC)cc12` it was 3.86 µM; in that of `O=S1(=O)N=C(N(CCO)N=C/C=C/c2ccccc2)c2ccccc21`, 20.6 µM; in that of `Nc1ccc(C2=Nc3cccc4cccc(c34)N2)cc1` [SMR000175908], 15.7 µM. Consider `COc1cc(C2Nc3cccc4cccc(c34)N2)ccc1OC(C)=O` [Acetic acid 4-(2,3-dihydro-1H-perimidin-2-yl)-2-methoxy-phenyl ester], for which the midpoint of the response, the EC50, lay at 11.5 µM. In the case of `COc1ccccc1NC1=C(NC(C)=O)C(=O)c2ccccc2C1=O` [N-[3-(2-methoxyanilino)-1,4-dioxonaphthalen-2-yl]acetamide], the EC50 was 4 µM. Against the preceding molecule, the EC50 is about 2.9-fold lower.

For `Cc1ccc(-c2ccc(/C=C3\SC(N4CCOCC4)=NC3=O)o2)cc1` [(5Z)-5-[[5-(4-methylphenyl)-2-furanyl]methylidene]-2-(4-morpholinyl)-4-thiazolone], the EC50 came out at 89 µM.

`COC(=O)c1c(C(=O)OC)c2cccc3cc(-c4ccccc4)c4ccc1c4n32` [SMR000161417] returned a half-maximal effective concentration (EC50) of 1.31 µM. Molecule `CN1CCN(C2=C(Cl)C(=O)C(c3cnc(N4CCCCC4)s3)=C(Cl)C2=O)CC1` gave an EC50 of 0.04 µM. Molecule `O=C(Nc1ccc2nc(-c3ccco3)c(-c3ccco3)nc2c1)NC1CC1` [SMR000118524] displayed an EC50 of 16.4 µM. In turn, `CCOC(=O)c1c(NC(C)=O)sc2c(O)c(Br)cc(Br)c12` showed an EC50 of 40.3 µM. The molecule `COc1cc2nc(=S)n(CCCN3CCOCC3)c(N)c2cc1OC` had an EC50 of 9.25 µM.

`Cc1ccc(-c2cc(-c3ccc(C)o3)nc(N)c2C#N)cc1` [2-amino-6-(5-methylfuran-2-yl)-4-(4-methylphenyl)pyridine-3-carbonitrile] registered an EC50 of 18.5 µM. Molecule `COc1ccc(C)cc1-n1c(=O)c2ccccc2c2ccccc2c1=O` [MLS000682999] registered a concentration giving a half-maximal response (EC50) of 24.2 µM. This EC50 and that of the molecule before are within 1.5-fold of each other. Regarding `CC1N(C)c2cccc3cccc(c23)N1C` [1,2,3-trimethyl-2,3-dihydro-1H-perimidine], a half-maximal effect (EC50) was put at 2.26 µM. Still for that read-out and setting: for `Cc1ccc(C=NN(C)C2=NS(=O)(=O)c3ccccc32)o1` [N-methyl-N-[(5-methyl-2-furanyl)methylideneamino]-1,1-dioxo-1,2-benzothiazol-3-amine] the value was 16.6 µM.
